# pEC50: −log10 of the molar value. Where “and” joins values, the source holds several entries; their conditions need not be identical. Equal entries are not always repeated. Where two headings read alike, the source gives them in different places.
# Key:
# Vero cells = test: Cytotoxicity effect on Vero cells (MTS-PMS assay); type: cell-based, African green monkey; settings: Chlorocebus sabaeus, read-out: EC50 against Vero cells
# Method: Vero cells were harvested by trypsinization when it reached 80–90% confluence. A volume of 100 μl Vero cells (6 x 10^4 cells/ml) in GM was cultured in triplicate wells of a 96-well plate and incubated for 24 hours.
# MTS solution was prepared (2 mg/ml) by dissolving the powder in PBS. Exposure to light was avoided during the preparation. PMS (0.92 mg/ml) was similarly prepared in PBS and both solutions were stored at -20 °C. A volume of 20 μl of MTS solution was added into each well and the cells were incubated for one hour in a CO2 incubator [23, 24]. The absorbance (abs) was then measured at 490 nm using a microplate reader (Thermo Scientific Multiskan®Spectrum, USA). The percentage of cell viability was calculated using the following formula [25, 26]. The graphs were plotted and analyses their statistical data using Prism 5.0 (GraphPad Software Inc., CA USA) (S1 Dataset and S3 Dataset).
# %ofcellviability=Opticaldensity(OD)oftreatedcell/Opticaldensity(OD)ofuntreatedcell(cellonly)
# [1] = test system: T. gondii tachyzoites RH strain; test: Treatment of T. gondii-infected Vero cells (MTS-PMS assay); type: cell-based, Toxoplasma gondii; settings: for pEC50 / EC50: Toxoplasma gondii, read-out: EC50 against T. gondii; for pEC50: molar value in brackets; for Selectivity Index (SI): Vero Cell (EC50)/T. gondii EC50
# Method: Vero cells were harvested by trypsinization when it reached 80–90% confluence. A volume of 100 μl diluted Vero cells of (6 x 10^4 cells/ml) in GM was cultured in triplicate wells of a 96-well plate and incubated for 24 hours. Then, 100 μl of tachyzoites (3 x 10^5 /ml) in GM2 (comprising DMEM, 0.5% PS and 2% FBS) were added into the Vero cell-seeded wells. A volume of 100 ul the above medium was added to the negative control well and the plate was incubated for six hours. Subsequently, the wells were washed twice with WM to remove non-adherent parasites. A volume of 100 μl of GM2 was added and again incubated for 18 hours. […] The negative control well contained 100 μl Vero cells and PBS in control wells for NCI compounds.
# The percent cell viability was proportional to the mortality of T. gondii. The graphs were plotted and analyses their statistical data using Prism 5.0 (GraphPad Software Inc., CA USA) (S2 Dataset and S4 Dataset). […] Selectivity refers to the mean of the EC50 value for Vero cells relative to the mean of the EC50 value of the T. gondii. A P value of less than 0.05 was considered statistically significant and all data points represent the mean of three independent experiments. SI (selectivity index) measures the strength of inhibition against the Vero cells and the T. gondii.
# SelectivityIndex(SI)=VeroCell(EC50)/T.gondiiEC50
# [2] = T. gondii-infected Vero cells, 24 hours treatment, MTS-PMS
SMILES,"EC50 (Vero cells; 24 hours treatment, MTS-PMS) [µg/mL]","pEC50 [1, 2]","EC50 [1, 2] [µg/mL]",Selectivity Index (SI) [1],EC50 (Vero cells; 24 h) [µg/mL],"EC50 ([1]; Vero, 24 h)","EC50 against T. gondii [1, 2]"
"O=c1[nH]cc(F)c(=O)[nH]1 [5-Fluorouracil, 5-fluorouracil, reference compound]",9.72,,,,,,
"NCCN1CCNCC1 [NSC38968, 2-(piperazin-1-yl)ethan-1-amine]",21.5,4.43,4.82,4.5,,,
"CCOC1CCc2c(C)nc(N)nc2S1 (stereo not shown) [NSC77468, 7-ethoxy-4-methyl-6,7-dihydro-5H-thiopyrano[2,3-d]pyrimidin-2-amine]",47.8,5.07,1.92,25,,,
"NS(=O)(=O)c1ccc(Cl)cc1[N+](=O)[O-] [NSC81213, 4-chloro-2-nitrobenzene-1-sulfonamide]",24.6,4.70,4.75,5.2,,,
"C1CC2CCNC3CCNC(C1)N23 (stereo not shown) [NSC81462, dodecahydro-1,4,9b-triazaphenalene]",,,,12.0,39,3.24 µg/mL and 17.8 µM,
"CC1=C(C(N)=O)S(=O)(=O)c2ccccc21 [NSC108972, 3-methyl-1,1-dioxo-1 H -1-benzothiophene-2-carboxamide]",28,4.49,7.17,3.9,,,
"COc1ccccc1N1C(=O)CC(Sc2cccc(N)c2)C1=O (stereo not shown) [NSC153391, 3-[(3-aminophenyl)sulfanyl]-1-(2-methoxyphenyl)pyrrolidine-2,5-dione]",24.7,,,,,,Inactive
"Nc1ccc(C(=O)c2cccs2)cn1 [NSC343344, (6-aminopyridin-3-yl)(thiophen-2-yl)methanone]",,,,,29.6,,Inactive
"Nc1cc(Cl)ccc1N1C(=O)CCC1=O [NSC660301, 1-(2-amino-4-chlorophenyl)pyrrolidine-2,5-dione]",22.3,4.82,3.43,6.5,,,

# Source: paper PMC7244133, “Identification of potential dual -targets anti- toxoplasma gondii compounds through structure-based virtual screening and in-vitro studies” (PLoS ONE, 2020)
